Read-outs that look alike come from different tables or passages of the source.

Here are results for eleven compounds from US12557811B2, “Effective and eco-friendly disinfectant” (The Hong Kong University of Science and Technology, priority 2022, dated 2026).

The test system of one series is E. coli. Put plainly: Disinfection experiments, membrane filter enumeration, E. coli. Type of series: cell-based, Escherichia coli. The procedure:
Disinfection experiments were performed in phosphate buffer saline (PBS; 10 mM, pH 7.2) with an initial concentration of E. coli of 10^6-10^7 colony forming units per milliliter (CFU mL^−1). Different concentrations of disinfection byproducts were added to the cell suspensions individually at room temperature (˜22° C.) with a contact time of 5 min. After the given contact time, the microorganism cells were enumerated following a membrane filter method. Briefly, serial ten-fold dilutions were conducted for the disinfected samples and the control sample without disinfection. Each diluted suspension was subjected to filtration through 0.45-μm membrane, which was then placed on a petri dish containing m-FC medium. After incubation at 45° C. for 24 hours, the colony forming units within a statistically reasonable range (20-80) were counted. The disinfection experiments were performed in duplicate. All the materials for the disinfection experiments were autoclaved at 121° C. for 15 min and cooled to room temperature before use.
(§1) The disinfection experiments were performed in PBS solutions (10 mM, pH 7.2) with an initial concentration of E. coli, S. aureus, or C. albicans of 10^6-10^7 CFU mL^−1. Different concentrations of 2,6-DCQ or PCMX were added to the cell suspensions at room temperature (˜22° C.) After the given contact time (i.e., 5 min), the microorganism cells were enumerated following a membrane filter method. Briefly, serial ten-fold dilutions were conducted for the disinfected samples and the control sample without disinfection. Each diluted suspension was filtered through a 0.45-μm filter paper, which was then placed on a petri dish. The petri dishes containing E. coli, S. aureus, and C. albicans were incubated in m-FC medium at 45° C. for 24 h, Tryptone Soya broth at 37° C. for 24 h, and Sabouraud Dextrose broth at 37° C. for 24 h, respectively. After incubation, the colony forming units within a statistically reasonable range (20-80) were counted. The disinfection experiments were performed in duplicate. All the materials for the disinfection experiments were autoclaved at 121° C. for 15 min and cooled to room temperature before use.
The disinfection experiments were performed in PBS solutions (10 mM, pH 7.2) with an initial concentration of E. coli of 10^6-10^7 CFU mL^−1. 2,5-Dichloro-1,4-benzoquinone (7.5 and 15 mg L^−1) or 2,6-DCQ (7.5 and 15 mg L^−1) was added to the cell suspensions at room temperature (˜22° C.). After the given contact time (i.e., 5 min), the microorganism cells were enumerated following a membrane filter method. Briefly, serial ten-fold dilutions were conducted for the disinfected samples and the control sample without disinfection. Each diluted suspension was subjected to filtration through 0.45-μm membrane, which was then placed on a petri dish. The petri dishes containing E. coli were incubated in m-FC medium at 45° C. for 24 hours. After incubation, the colony forming units within a statistically reasonable range (20-80) were counted. The disinfection experiments were performed in duplicate. All the materials for the disinfection experiments were autoclaved at 121° C. for 15 min and cooled to room temperature before use.
The disinfection experiments were performed in PBS solutions (10 mM, pH 7.2) with an initial concentration of E. coli of 10^6-10^7 CFU mL^−1. 2,6-DBQ (2,6-dibromo-1,4-benzoquinone), 2,6-DIQ (2,6-diiodo-1,4-benzoquinone), or 2,6-DCQ was added to the cell suspensions at room temperature (˜22° C.) with a contact time of 5 min. After the given contact time, the microorganism cells were enumerated following a membrane filter method. Briefly, serial ten-fold dilutions were conducted for the disinfected samples and the control sample without disinfection. Each diluted suspension was subjected to filtration through 0.45-μm membrane, which was then placed on a petri dish. The petri dishes containing E. coli were incubated in m-FC medium at 45° C. for 24 hours.

The nature of series [1]: Degradation kinetics without solar irradiation (darkness). The series is classed as physicochemical.
Series [2] can be described thus: Degradation kinetics with solar irradiation.
Series [3] concerns antibiotic resistance genes. To be noted: environmentally relevant concentrations; cited from earlier work.
The test system of the next series is rainbow trout. As to conditions: environmentally relevant concentrations (˜4.2 μg L^−1); cited from earlier work.
For the next series, the system named is zebrafish embryos. To be noted: in vivo; cited from earlier work.
Series [4] concerns E. coli, S. aureus and C. albicans. Briefly: Disinfection experiments, comparison across the three types of pathogens. Type of series: cell-based, Escherichia coli, Staphylococcus aureus, Candida albicans. The procedure:
as §1

In another series the test system is S. aureus. Put plainly: Disinfection experiments, membrane filter enumeration, S. aureus. The series is classed as cell-based, Staphylococcus aureus. As to conditions: for inactivation rate constant / Dose for achieving 3-log (99.9%) inactivation: S. aureus. How it is done: as §1
The next series has as its system C. albicans. Briefly: Disinfection experiments, membrane filter enumeration, C. albicans. The series is classed as cell-based, Candida albicans. To be noted: for inactivation rate constant / Dose for achieving 3-log (99.9%) inactivation: C. albicans. The procedure:
as §1

Series [5] can be described thus: Storage stability in solid form or in an organic solvent. Type of series: physicochemical.
The subject of the next series is P. dumerilii embryos. Put plainly: P. dumerilii embryo developmental toxicity. The series is classed as in vivo, Platynereis dumerilii. An excerpt:
The doses of 2,6-DCQ and PCMX for 3-log E. coli inactivation (pH 7.2) were set as the in-use concentrations, which were serially diluted and added to the embryos of a marine polychactc, Platynereis dumerilii, at 12-hour postfertilization. A dilution factor was defined as the ratio of the in-use concentration to the exposure concentration. Each exposure set contained a control sample (i.e., the embryos at 12-hour postfertilization developed in seawater). By 24-hour postfertilization, normally developed embryos should have reached the first larval stage. An inverted stereomicroscope (40× magnification) was used to observe the larvae. The normal development percentage was calculated as the ratio of normally developed embryos to total embryos. By plotting the curve of the normal development percentage versus the dilution factor, the EC50,DF value (i.e., the dilution factor corresponding to 50% of the normal development percentage of the control sample) was obtained using SigmaPlot 12. The developmental toxicity test was conducted in duplicate.

Setting [6] is: pH not given, read-out: Half-life, without solar irradiation (converted).

Turning to `O=C1C=C(I)C(=O)C(I)=C1` [2,6-DIQ, 2,6-diiodo-1,4-benzoquinone], the “disinfection efficacy compared with 2,6-DCQ” value with E. coli (pH 7.2) was “comparable disinfection efficacy”.
Same read-out and setting: the entry for `O=C1C=C(Cl)C(=O)C=C1Cl` [2,5-DCQ, 2,5-dichloro-1,4-benzoquinone] is “comparable disinfection efficacy”.
Broadly, the half-life is how long it takes for the measured level to halve. For the compound `Oc1cc(Cl)c(O)cc1Cl` [2,5-Dichlorohydroquinone, 2,5-dichlorohydroquinone], in [1] (pH not given), the “k, degradation, without solar irradiation” value was determined as 0.0922 h⁻¹. Moreover, the half-life was 0.13 h in [1] (setting [6]) and 0.11 h in series [2]. The “k, degradation, with solar irradiation” value in [2] (pH not given) turned out to be 0.101 h⁻¹.
With `Oc1ccc(Br)cc1Br` [2,4-Dibromophenol, 2,4-dibromophenol], the half-life in series [2] was 35 h. Also, the “k, degradation, with solar irradiation” value in [2] (pH not given) was 0.0201 h⁻¹.
For the compound `Oc1cc(I)c(O)cc1I` [2,5-Diiodohydroquinone, 2,5-diiodohydroquinone], in series [1] (pH not given), the “k, degradation, without solar irradiation” value is 0.078 h⁻¹. The half-life in [1] (setting [6]) and in series [2] was 0.15 h throughout. In addition, in [2] (pH not given), the “k, degradation, with solar irradiation” value turned out to be 0.756 h⁻¹.
The compound `Oc1ccc(Cl)cc1Cl` [2,4-Dichlorophenol, 2,4-dichlorophenol] had a half-life in “physchem” of 44 h. In addition, in series [2] (pH not given), the “k, degradation, with solar irradiation” value turned out to be 0.0157 h⁻¹.
On to `O=C1C=C(Br)C(=O)C(Br)=C1` [2,6-DBQ, 2,6-dibromo-1,4-benzoquinone], for which the “disinfection efficacy compared with 2,6-DCQ” value in the series on E. coli (pH 7.2) is on record as “comparable disinfection efficacy”.
On to “para-chloro-meta-xylenol [PCMX, reference compound]”, for which the “Half-life, without solar irradiation” value in series [1] (pH 8.2) is 5578 h; in series [1] (seawater pH (pH 8.2)), about 5760 h. For the same compound, the “k, degradation, without solar irradiation” value in [1] (pH 8.2) was found to be 0.00012 h⁻¹. Further, the “effect on antibiotic resistance genes” value in series [3] is listed as “promote the spread of antibiotic resistance genes”. Further, the “effects of chronic exposure in rainbow trout” value in the series on rainbow trout was “gene regulation and morphological changes”. The “adverse effects in zebrafish embryos” value in the series with zebrafish embryos is “mortality, morphological malformations, and neurotoxicity”. For the same compound, in series [4] (three types of pathogens, contact time 5 min), the “in-use doses for 99.9% inactivation, times higher than those of 2,6-DCQ” value was 10-15 times. For the same compound, the inactivation rate constant was determined as 3500 µL/min/mg with S. aureus; 3500 µL/min/mg in the series on S. aureus (pH 7.2, contact time 5 min); 3500 µL/min/mg in the series on C. albicans; 3500 µL/min/mg in the series with C. albicans (pH 7.2, contact time 5 min); 11000 µL/min/mg in the series with E. coli (E. coli); 11000 µL/min/mg in the series with E. coli (E. coli, pH 7.2, contact time 5 min). Besides, the “Dose for achieving 3-log (99.9%) inactivation” value with S. aureus (pH 7.2, contact time 5 min) amounted to 312 mg/L; with C. albicans (pH 7.2, contact time 5 min), 325 mg/L; in the series on E. coli (pH 7.2) it was 188 mg/L. In addition, in series [2] (pH 8.2), the “Half-life, with solar irradiation” value was determined as 257 h. Moreover, the “k, degradation, with solar irradiation” value in [2] (pH 8.2) came out at 0.0027 h⁻¹. In addition, in [2] (pH 8.2, seawater pH), the “half-life under solar irradiation” value was found to be 257 h.
`Oc1cc(Br)c(O)cc1Br` [2,5-Dibromohydroquinone, 2,5-dibromohydroquinone]: the “k, degradation, without solar irradiation” value in series [1] (pH not given) was found to be 0.0767 h⁻¹. Further, the half-life in series [1] (setting [6]) and in [2] was 0.15 h in each case. Moreover, the “k, degradation, with solar irradiation” value in [2] (pH not given) came out at 0.787 h⁻¹.
For the compound `O=C1C=C(Cl)C(=O)C(Cl)=C1` [2,6-DCQ, 2,6-dichloro-1,4-benzoquinone], the half-life was 65.5 h in series [1] (buffer, pH 6.2, read-out: half-life in darkness (converted)) and 15.1 h in series [1] (buffer, pH 7.2, read-out: half-life in darkness (converted)). For the same compound, the “Half-life, without solar irradiation” value in series [1] (pH 6.2) stood at 65.5 h; in series [1] (pH 7.2) it was 15.1 h; in series [1] (pH 8.2) it was 1.74 h. The “k, degradation, without solar irradiation” value came out at 0.010 h⁻¹ in [1] (pH 6.2), 0.046 h⁻¹ in series [1] (pH 7.2) and 0.397 h⁻¹ in series [1] (pH 8.2). Further, the “disinfection efficacy, times higher than PCMX” value in [4] is 10-15 times. Moreover, the “reduction of disinfectant doses for 99.9% inactivation by switching from PCMX to 2,6-DCQ” value in [4] (E. coli, S. aureus and C. albicans) is on record as 89-93%. Also, in series [4] (E. coli, S. aureus and C. albicans, contact time 5 min), the “in-use doses for 99.9% inactivation, times lower than the corresponding doses of PCMX” value was 10-15 times. In addition, the inactivation rate constant was 20000 µL/min/mg in the series with S. aureus; 20000 µL/min/mg in the series on S. aureus (pH 7.2, contact time 5 min); 31200 µL/min/mg in the series with C. albicans; 31200 µL/min/mg with C. albicans (pH 7.2, contact time 5 min); 91700 µL/min/mg in the series with E. coli; 91700 µL/min/mg in the series with E. coli (pH 7.2). Moreover, the “Dose for achieving 3-log (99.9%) inactivation” value came to 29.4 mg/L with S. aureus (pH 7.2, contact time 5 min); 35.7 mg/L in the series on C. albicans (pH 7.2, contact time 5 min); 12.8 mg/L with E. coli (pH 7.2). Besides, the inactivation is 99.9% in the series on S. aureus (Staphylococcus aureus ATCC 25923, contact time of 5 minutes); 99.9% in the series on C. albicans (Candida albicans ATCC 14053, contact time of 5 minutes); 99.9% with E. coli. For the same compound, the time remaining stable entry in series [5] is “at least 24 months”. Further, the “developmental toxicity, times lower than PCMX” value in the series with P. dumerilii embryos (48 hours after discharge into seawater) came to 31 times. Also, the “developmental toxicity compared with PCMX” value with P. dumerilii embryos (after 2 hours of degradation in seawater) is on record as “lower developmental toxicity”. In addition, the “dose required for 99.9% inactivation, times lower than those of the other nine disinfection byproducts” value in the series with E. coli (E. coli, contact time of 5 minutes) is 8.8-500 times. Also, the “inactivation rate constant, times greater than those of other disinfection byproducts” value with E. coli (E. coli, versus the other nine disinfection byproducts) was 8.8-500 times. The “Half-life, with solar irradiation” value in series [2] (pH 6.2) was 4.13 h; in series [2] (pH 8.2), 1.33 h. For the same compound, the “k, degradation, with solar irradiation” value in [2] (pH 6.2) was 0.17 h⁻¹; in series [2] (pH 7.2), 0.22 h⁻¹; in series [2] (pH 8.2) it was 0.52 h⁻¹. In series [2] (pH 7.2), the “half-life under solar irradiation” value stood at 3.20 h. Also, the “half-lives, times shorter than those of PCMX” value in series [2] (seawater (pH 8.2), with and without solar irradiation) is given as “about 200 times”.
As to `Oc1ccc(I)cc1I` [2,4-Diiodophenol, 2,4-diiodophenol], in [2] (pH not given), the “Half-life, with solar irradiation” value is listed as 83 h and the “k, degradation, with solar irradiation” value was 0.0083 h⁻¹.
